Laboratory results reported in article PMC9845330 (Communications Biology, 2023).
Non-standard residues stand in square brackets, D forms with d. Residues, ends and D or L forms follow the SMILES beside them. *: point of attachment. X1 = O=C(CCCC[C@@H]1SC[C@@H]2NC(=O)N[C@@H]21)NCCCOCCOCCOCCCN*; PEG12 = NCCOCCOCCOCCOCCOCCOCCOCCOCCOCCOCCOCCOCCC(=O)O

What was measured:
[1] = system: Lysosome labelled H1299 cells; experiment: Colocalization with lysosomes by confocal microscopy; assay type: cell-based, human; conditions: 24 h, Streptavidin Alexa Fluor 555 conjugate
Description: Lysosome-labelled cells (green) were treated with MGS4_V8-Streptavidin Alexa Fluor 555 for 30 min, 1 h, 4 h, or 24 h. Peptide-containing vesicles (red) are seen at 30 min separate from the labeled lysosomes, which by 1 h have started to colocalize with lysosomal vesicles (yellow). MGS4_V8 remains colocalized with lysosomes at 24 h with >70% of the signal colocalized with lysosomes (Fig. 3b). Trafficking, accumulation, and retention in the lysosomes is even more evident in the compressed maximally projected z-stack of the cells (Fig. 3c). Of note, lysosomal regeneration is observed at 24 h as witnessed by increased green signal from the GFP that is not colocalized with previously internalized MGS4_V8. […]
The time course for lysosomal accumulation was performed by imaging at indicated time points using biotinylated peptide conjugated to Streptavidin-Alexa Fluor 555, Streptavidin-Qdot605, or streptavidin-saporin. Saporin was detected using anti-saporin rabbit polyclonal antibody AB-41AP (1:100 dilution) (Advanced Targeting Systems Bio, San Diego, CA). […] Each pixel of a single slice was evaluated for passing the threshold in red (box 1), green (box 2), or both (box3) for colocalization. Mander’s coefficients are calculated for each slice with 0 indicating no colocalization and 1 being complete colocalization.

Compound: CC(=O)N[C@@H](Cc1ccccc1)C(=O)N[C@@H](Cc1c[nH]cn1)C(=O)N[C@@H](C)C(=O)N[C@H](C(=O)N1CCC[C@H]1C(=O)N[C@@H](CCC(N)=O)C(=O)N[C@@H](CO)C(=O)N[C@@H](Cc1ccccc1)C(=O)N[C@@H](Cc1ccc(O)cc1)C(=O)N[C@H](C(=O)NCCOCCOCCOCCOCCOCCOCCOCCOCCOCCOCCOCCOCCC(=O)N[C@@H](CCC(=O)NCCCOCCOCCOCCCNC(=O)CCCC[C@@H]1SC[C@@H]2NC(=O)N[C@@H]21)C(N)=O)[C@@H](C)O)C(C)C [MGS4_V8] (Ac-FHAVPQSFYT[PEG12]E(X1)-NH2)
- signal colocalized with lysosomes [1]: > 70%
- stable in human serum for: > 48 h
